According to patent US6962931B2, “Self-emulsifying formulations of cholesteryl ester transfer protein inhibitors” (Pfizer Inc., priority 2001, dated 2005):
Like-named read-outs stand apart in the source and are kept apart here.

Tests used:
[1] = Microsolubility estimate by repeated addition of vehicle; type: physicochemical; conditions: thermodynamic from solid, read-out: Microsolubility
Protocol: (§1) For CETP inhibitors where quantities were limited, an estimate of solubility was obtained by addition of vehicle to a known quantity of the compound and mixing in an ultrasonicator bath for 90 minutes, followed by overnight equilibration at ambient temperature. Addition of vehicle was repeated until a solution was achieved.
as §1, with “limited or the samples were amorphous solids,” for “limited,”, “achieved. From the total volume of vehicle added to solubilize the CETP inhibitor compound, the solubility value, or so-called microsolubility, was calculated by the equation: Weight of sample (mgA)/vehicle volume (mL)=Microsolubility (mgA/mL)” for “achieved.”

[2] = PK in rat, oils or preformed emulsions by oral gavage; design: species or system Sprague Dawley rats; conditions: Sprague-Dawley, in vivo
Source text: Emulsions prepared from olive oil/surfactant provided the best results.

PK in monkeys = type: in vivo, cynomologous monkeys
Source text: Use of an emulsion prepared from crystalline (ethanolate) drug allowed comparible exposures to be achieved to those for more soluble amorphous drug in Miglyol® alone. Excellent dose proportionality was also obtained.

[3] = Emulsion from oil solution plus equal volume of water: particle size and stability; type: physicochemical
Protocol: An emulsion was prepared by combining 1 volume of oil solution with an equal volume of de-ionized water. […] The emulsion is then stirred continuously to maintain homogeneity.
An emulsion was prepared by combining 1 volume of oil solution with an equal volume of de-ionized water. This mixture was stirred for 10 minutes and then vortex mixed for 2 minutes. […] It was stirred continuously to maintain homogeneity.
An emulsion was prepared by combining combining 1 volume of oil solution with an equal volume of de-ionized water. This mixture was stirred for 10 minutes and then vortex mixed for 2 minutes. […] It was stirred continuously to maintain homogeneity.

- Solubility ([1]; Capmul MCM, oil or lipid): > 300 mg/mL
- Solubility ([1]; Cotton oil, oil or lipid): < 75 mg/mL
- Solubility ([1]; Crodamol GTCC, oil or lipid): < 75 mg/mL
- Solubility ([1]; Glycerin, organic solvent or mixture): < 75 mg/mL
- Solubility ([1]; Incromega TG2671, oil or lipid): < 75 mg/mL
- Solubility ([1]; Linoleic acid, oil or lipid): < 60 mg/mL
- Solubility ([1]; Miglyol 810, oil or lipid): < 100 mg/mL
- Solubility ([1]; Miglyol 812, oil or lipid): > 300 mg/mL
- Solubility ([1]; Olive oil, oil or lipid): > 300 mg/mL
- Solubility ([1]; Safflower oil, oil or lipid): > 300 mg/mL
- Solubility ([1]; mineral oil, oil or lipid): < 75 mg/mL
- Solubility ([1]; oil or lipid): < 75 mg/mL
- Solubility ([1]; propylene glycol, organic solvent or mixture): < 75 mg/mL
- Cmax ([2]; 100 mg/kg, crystalline ethanolate, Miglyol/Cremophor/0.5% HPMCAS 40/10/50, 100 mg/kg): 1600 ng/mL
- AUC(0-t) ([2]; 100 mg/kg, crystalline ethanolate, Miglyol/Cremophor/0.5% HPMCAS 40/10/50, 100 mg/kg, Tlast = 24 hr): 15000 ng·h/mL
- AUC(0-t) ([2]; 100 mg/kg, crystalline ethanolate, Miglyol/Cremophor/water 40/10/50, 100 mg/kg, Tlast = 24 hr): 23000 ng·h/mL
- Cmax ([2]; 100 mg/kg, crystalline ethanolate, Miglyol/Cremophor/water 40/10/50, 100 mg/kg, conc. in oil 100 mg/mL): 1900 ng/mL
- Cmax ([2]; 100 mg/kg, crystalline ethanolate, Olive oil/Cremophor 80/20, 100 mg/kg): 3600 ng/mL
- AUC(0-t) ([2]; 100 mg/kg, crystalline ethanolate, Olive oil/Cremophor 80/20, 100 mg/kg, Tlast = 24 hr): 45000 ng·h/mL
- AUC(0-t) ([2]; 100 mg/kg, crystalline ethanolate, Olive oil/Cremophor/water 40/10/50, 100 mg/kg, Tlast = 9 hr): 33000 ng·h/mL
- Cmax ([2]; 100 mg/kg, crystalline ethanolate, Olive oil/Cremophor/water 40/10/50, 100 mg/kg, conc. in oil 20 mg/mL): 6200 ng/mL
- Cmax ([2]; 300 mg/kg, amorphous anhydrous, Olive oil): 7300 ng/mL
- AUC(0-t) ([2]; 300 mg/kg, amorphous anhydrous, Olive oil, Tlast = 24 hr): 50000 ng·h/mL
- Cmax ([2]; 375 mg/kg, crystalline ethanolate, Olive oil/caprylic acid/Cremophor/water 10/30/10/50, 375 mg/kg): 4100 ng/mL
- AUC(0-t) ([2]; 375 mg/kg, crystalline ethanolate, Olive oil/caprylic acid/Cremophor/water 10/30/10/50, 375 mg/kg, Tlast = 9 hr): 21000 ng·h/mL
- Cmax ([2]; 500 mg/kg, crystalline ethanolate, Miglyol): 2100 ng/mL
- AUC(0-t) ([2]; 500 mg/kg, crystalline ethanolate, Miglyol, Tlast = 24 hr): 27000 ng·h/mL
- AUC(0-t) ([2]; 500 mg/kg, crystalline ethanolate, Miglyol/Cremophor/water 40/10/50, 500 mg/kg, Tlast = 9 hr): 18000 ng·h/mL
- Cmax ([2]; 500 mg/kg, crystalline ethanolate, Miglyol/Cremophor/water 40/10/50, 500 mg/kg, conc. in oil 100 mg/mL): 4600 ng/mL
- Cmax ([2]; 625 mg/kg, crystalline ethanolate, Olive oil/caprylic acid/triacetin/Cremophor/water 10/15/15/10/50, 625 mg/kg): 4800 ng/mL
- AUC(0-t) ([2]; 625 mg/kg, crystalline ethanolate, Olive oil/caprylic acid/triacetin/Cremophor/water 10/15/15/10/50, 625 mg/kg, Tlast = 9 hr): 26000 ng·h/mL
- Cmax (PK in monkeys; crystalline ethanolate, Olive oil/Cremophor/water 40/10/50, 20 mg/kg, 20 mg/kg): 160 ng/mL
- Cmax (PK in monkeys; monkey, in vivo, oral, 20 mg/kg, crystalline ethanolate, Olive oil/Cremophor/water 40/10/50, 20 mg/kg, read-out: Cmax): 100 ng/mL
- AUC (PK in monkeys; monkey, in vivo, oral, 50 mg/kg, crystalline ethanolate, Miglyol/Cremophor/water 40/10/50, 50 mg/kg (BID)): 13000 to 15000 ng·h/mL
- Cmax (PK in monkeys; monkey, in vivo, oral, 50 mg/kg, crystalline ethanolate, Miglyol/Cremophor/water 40/10/50, 50 mg/kg (BID), read-out: Cmax): 800 to 1100 ng/mL
- AUC (PK in monkeys; monkey, in vivo, oral, 100 mg/kg, amorphous anhydrous, Miglyol): ~29000 ng·h/mL
- Cmax (PK in monkeys; monkey, in vivo, oral, 100 mg/kg, amorphous anhydrous, Miglyol, 100 mg/kg, read-out: Cmax): ~1600 ng/mL
- Cmax (PK in monkeys; monkey, in vivo, oral, 100 mg/kg, crystalline ethanolate, Miglyol, 100 mg/kg, read-out: Cmax): ~170 ng/mL
- AUC (PK in monkeys; monkey, in vivo, oral, 100 mg/kg, crystalline ethanolate, Miglyol/Cremophor/water 40/10/50, 100 mg/kg (BID)): 24000 to 29000 ng·h/mL
- Cmax (PK in monkeys; monkey, in vivo, oral, 100 mg/kg, crystalline ethanolate, Miglyol/Cremophor/water 40/10/50, 100 mg/kg (BID), read-out: Cmax): 1600 to 2300 ng/mL
- Cmax (PK in monkeys; monkey, in vivo, oral, 100 mg/kg, crystalline ethanolate, Miglyol/Cremophor/water 40/10/50, 100 mg/kg, read-out: Cmax): 400 to 1800 ng/mL
- average particle size of emulsion ([3]; Example 17 oil solution (Miglyol 812/propylene carbonate/Cremophor EL, 115 mg/g) plus equal volume water): less than 10 microns
- average particle size of emulsion ([3]; Example 18 oil solution (olive oil/Cremophor EL, 13 mg/g) plus equal volume water): less than 10 microns
SMILES: CCOC(=O)N1c2ccc(C(F)(F)F)cc2[C@@H](N(Cc2cc(C(F)(F)F)cc(C(F)(F)F)c2)C(=O)OC)C[C@H]1CC [Compound A, [2R,4S] 4-[(3,5-bis-trifluoromethyl-benzyl)-methoxycarbonyl-amino]-2-ethyl-6-trifluoromethyl-3,4-dihydro-2H-quinoline-1-carboxylic acid ethyl ester]
- chemical degradation or crystallization ([3]; Example 17 oil after storage for 8 days or emulsion after 24 hr): No chemical degradation based on HPLC analysis or crystallization based on microscopic examination was detected
- chemical degradation or crystallization ([3]; Example 18 oil after storage for 8 days or emulsion after 24 hr): No chemical degradation based on HPLC analysis or crystallization based on microscopic examination was detected
